Molecules are shown by their SMILES.

The values that follow come from patent US7253192B2, “Phenyl derivatives comprising an acetylene group” (Hoffmann-La Roche Inc., priority 2004, dated 2007).

One series has as its target T1, PPARα (Homo sapiens, UniProt Q07869).
T1 construct: PPARα (aa 167 to 469); made in house; host or cells: E. coli BL21 (pLysS)
T1 sequence (Q07869 167-468 limits assumed): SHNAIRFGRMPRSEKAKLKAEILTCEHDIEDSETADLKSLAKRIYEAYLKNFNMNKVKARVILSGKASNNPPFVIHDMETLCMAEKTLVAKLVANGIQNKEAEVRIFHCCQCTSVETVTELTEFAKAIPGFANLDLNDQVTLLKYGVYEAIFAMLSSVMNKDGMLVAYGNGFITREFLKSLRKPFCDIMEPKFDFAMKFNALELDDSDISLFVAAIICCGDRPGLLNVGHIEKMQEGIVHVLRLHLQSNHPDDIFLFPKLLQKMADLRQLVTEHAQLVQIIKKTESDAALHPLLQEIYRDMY
Put plainly: Radioligand binding assay (SPA), PPARα receptor binding. To be noted: GST-PPARα-LBD fusion protein, scintillation proximity radioligand binding. The text has this:
(§1) Full-length cDNA clones for humans PPARδ and PPARα and mouse PPARγ were obtained by RT-PCR from human adipose and mouse liver cRNA, respectively, cloned into plasmid vectors and verified by DNA sequencing. Bacterial and mammalian expression vectors were constructed to produce glutathione-s-transferase (GST) and Gal4 DNA binding domain proteins fused to the ligand binding domains (LBD) of PPARδ (aa 139 to 442), PPARγ (aa 174 to 476) and PPARα (aa 167 to 469). To accomplish this, the portions of the cloned sequences encoding the LBDs were amplified from the full-length clones by PCR and then subcloned into the plasmid vectors. Final clones were verified by DNA sequence analysis.
(§2) Induction, expression, and purification of GST-LBD fusion proteins were performed in E. coli strain BL21 (pLysS) cells by standard methods (Ref: Current Protocols in Molecular Biology, Wiley Press, edited by Ausubel et al.).
PPARα receptor binding was assayed in TKE50 (50 mM Tris-HCl, pH 8, 50 mM KCl, 2 mM EDTA, 0.1 mg/ml fatty acid-free BSA and 10 mM DTT). For each 96 well reaction an 140 ng equivalent of GST-PPARα-LBD fusion protein was bound to 10 μg SPA beads (PharmaciaAmersham) in a final volume of 50 μl by shaking. The resulting slurry was incubated for 1 h at RT and centrifuged for 2 min at 1300 g. The supernatant containing unbound protein was removed and the semidry pellet containing the receptor-coated beads was resolved in 50 μl of TKE. For radioligand binding e.g. 10000 dpm of 2(S)-(2-benzoyl-phenylamino)-3-{4-[1,1-ditritio-2-(5-methyl-2-phenyl-oxazol-4-yl)-ethoxy]-phenyl}-propionic acid or 2,3-ditritio-2(S)-methoxy-3-{4-[2-(5-methyl-2-phenyl-oxazol-4-yl)-ethoxy]-benzo [b]thiophen-7-yl}-propionic acid in 50 ul were added, the reaction incubated at RT for 1 h and scintillation proximity counting performed. All binding assays were performed in 96 well plates and the amount of bound ligand measured on a Packard TopCount using OptiPlates (Packard). Nonspecific binding was determined in the presence of 10^−4 M unlabelled compound. […]

The target in another series is T2, PPARδ (Homo sapiens, UniProt Q03181).
T2 construct: PPARδ (aa 139 to 442); made in house; host or cells: E. coli BL21 (pLysS)
T2 sequence (Q03181 139-441 limits assumed): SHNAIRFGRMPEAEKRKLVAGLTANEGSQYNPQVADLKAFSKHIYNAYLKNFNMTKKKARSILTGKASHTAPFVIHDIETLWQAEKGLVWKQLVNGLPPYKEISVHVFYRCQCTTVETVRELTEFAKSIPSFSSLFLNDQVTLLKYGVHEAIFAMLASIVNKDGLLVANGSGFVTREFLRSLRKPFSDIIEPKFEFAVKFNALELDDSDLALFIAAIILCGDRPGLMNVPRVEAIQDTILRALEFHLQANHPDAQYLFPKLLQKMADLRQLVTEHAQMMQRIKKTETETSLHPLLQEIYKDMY
Put plainly: Radioligand binding assay (SPA), PPARδ receptor binding. To be noted: GST-PPARδ-LBD fusion protein, scintillation proximity radioligand binding.
Excerpt: as §1, §2
PPARδ receptor binding was assayed in HNM10 (50 mM Hepes, pH 7.4, 10 mM NaCl, 5 mM MgCl2, 0.15 mg/ml fatty acid-free BSA and 15 mM DTT). For each 96 well reaction a 500 ng equivalent of GST-PPARδ-LBD fusion protein and radioligand, e.g. 20000 dpm {2-methyl-4-[4-methyl-2-(4-trifluoromethyl-phenyl)-thiazol-5-yl-ditritiomethylsulfanyl]-phenoxy}-acetic acid, was bound to 10 μg SPA beads (PharmaciaAmersham) in a final volume of 50 μl by shaking. The resulting slurry was incubated for 1 h at RT and centrifuged for 2 min at 1300 g. The supernatant containing unbound protein was removed and the semidry pellet containing the receptor-coated beads was resuspended in 50 μl of HNM. Radioligand was added and the reaction incubated at RT for 1 h and scintillation proximity counting performed in the presence of test compounds was determined. All binding assays were performed in 96 well plates and the amount of bound ligand was measured on a Packard TopCount using OptiPlates (Packard). Dose response curves were done in triplicates within a range of concentration from 10^−10 M to 10^−4 M.
(SPA uses beads or plates that emit light when radiolabelled molecules are held near them.)

In the next series the target is T3, PPARγ (Mus musculus, UniProt P37238).
T3 construct: PPARγ (aa 174 to 476); made in house; host or cells: E. coli BL21 (pLysS)
T3 sequence (P37238 204-505): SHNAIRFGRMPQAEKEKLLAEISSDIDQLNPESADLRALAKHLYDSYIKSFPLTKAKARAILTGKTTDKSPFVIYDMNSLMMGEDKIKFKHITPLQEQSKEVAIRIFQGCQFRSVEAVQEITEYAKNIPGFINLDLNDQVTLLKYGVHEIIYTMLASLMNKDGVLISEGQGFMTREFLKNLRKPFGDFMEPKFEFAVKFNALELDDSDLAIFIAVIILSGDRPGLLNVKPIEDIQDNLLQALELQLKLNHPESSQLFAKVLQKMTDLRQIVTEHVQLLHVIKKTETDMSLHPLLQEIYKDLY
Put plainly: Radioligand binding assay (SPA), PPARγ receptor binding. To be noted: GST-PPARγ-LBD fusion protein, scintillation proximity radioligand binding.
Excerpt: as §1, §2
PPARγ receptor binding was assayed in TKE50 (50 mM Tris-HCl, pH 8, 50 mM KCl, 2 mM EDTA, 0.1 mg/ml fatty acid-free BSA and 10 mM DTT). For each 96 well reaction an 140 ng equivalent of GST-PPARγ-LBD fusion protein was bound to 10 μg SPA beads (PharmaciaAmersham) in a final volume of 50 μl by shaking. The resulting slurry was incubated for 1 h at RT and centrifuged for 2 min at 1300 g. The supernatant containing unbound protein was removed and the semidry pellet containing the receptor-coated beads was resolved in 50 ul of TKE. For radioligand binding e.g. 10000 dpm 2(S)-(2-benzoyl-phenylamino)-3-{4-[1,1-ditritio-2-(5-methyl-2-phenyl-oxazol-4-yl)-ethoxy]-phenyl}-propionic acid in 50 μl were added, the reaction incubated at RT for 1 h and scintillation proximity counting performed. All binding assays were performed in 96 well plates and the amount of bound ligand measured on a Packard TopCount using OptiPlates (Packard). Nonspecific binding was determined in the presence of 10^−4 M unlabelled compound. Dose response curves were done in triplicates within a range of concentration from 10^−10 M to 10^−4 M.

Compound `Cc1cc(SCCCC#Cc2ccc(OC(F)(F)F)cc2)ccc1OCC(=O)O` [Example 4, {2-Methyl-4-[5-(4-trifluoromethoxy-phenyl)-pent-4-ynylsulfanyl]-phenoxy}-acetic acid] had a melting point of 94 to 95 °C. Further, on PPARα, the IC50 stood at 14 nM. In addition, at PPARδ, the IC50 was 39 nM. On PPARγ, this compound yielded an IC50 greater than 10000 nM.
`Cc1cc(SCC#Cc2ccc(C(F)(F)F)cc2)ccc1OCC(=O)O` [Example 5, {2-Methyl-4-[3-(4-trifluoromethyl-phenyl)-prop-2-ynylsulfanyl]-phenoxy}-acetic acid] yielded a melting point of 130 to 131 °C.
Same read-out and setting: in the case of `Cc1cc(SCC#Cc2cccc(C(F)(F)F)c2)ccc1OCC(=O)O` [Example 6, {2-Methyl-4-[3-(3-trifluoromethyl-phenyl)-prop-2-ynylsulfanyl]-phenoxy}-acetic acid] it was 81 to 82 °C.
`Cc1cc(SCC#Cc2ccccc2C(F)(F)F)ccc1OCC(=O)O` [Example 7, {2-Methyl-4-[3-(2-trifluoromethyl-phenyl)-prop-2-ynylsulfanyl]-phenoxy}-acetic acid] registered a melting point of 95 to 97 °C.
The same measure, in the same setting: the figure for `Cc1cc(SCC#Cc2ccc(Cl)cc2)ccc1OCC(=O)O` [Example 8, {4-[3-(4-Chloro-phenyl)-prop-2-ynylsulfanyl]-2-methyl-phenoxy}-acetic acid] is 106 to 108 °C; for `COc1ccc(C#CCSc2ccc(OCC(=O)O)c(C)c2)cc1` [Example 9, {4-[3-(4-Methoxy-phenyl)-prop-2-ynylsulfanyl]-2-methyl-phenoxy}-acetic acid] it is 143 to 144 °C; for `Cc1cc(SCC#Cc2ccccc2)ccc1OCC(=O)O` [Example 10, [2-Methyl-4-(3-phenyl-prop-2-ynylsulfanyl)-phenoxy]-acetic acid] it is 90 to 92 °C.
On the same count and under the same terms, in the case of `Cc1cc(SCCC#Cc2ccc(C(F)(F)F)cc2)ccc1OCC(=O)O` [Example 12, {2-Methyl-4-[4-(4-trifluoromethyl-phenyl)-but-3-ynylsulfanyl]-phenoxy}-acetic acid] it was 129 to 130 °C.
Regarding `Cc1cc(OCCCC#Cc2ccc(OC(F)(F)F)cc2)ccc1OC(C)(C)C(=O)O` [Example 13, 2-Methyl-2-{2-methyl-4-[5-(4-trifluoromethoxy-phenyl)-pent-4-ynyloxy]-phenoxy}-propionic acid], the melting point is 90 to 91 °C (dec.). On PPARα, this compound returned an IC50 of 21 nM. On PPARδ, the IC50 came to 120 nM. The IC50 at PPARγ is greater than 10000 nM.
For `Cc1cc(OCCCC#Cc2ccc(C(F)(F)F)cc2)ccc1OC(C)(C)C(=O)O` [Example 14, 2-Methyl-2-{2-methyl-4-[5-(4-trifluoromethyl-phenyl)-pent-4-ynyloxy]-phenoxy}-propionic acid], the melting point is 114 to 115 °C (dec.).
Turning to `Cc1cc(OCCCC#Cc2ccc(Cl)cc2)ccc1OC(C)(C)C(=O)O` [Example 15, 2-{4-[5-(4-Chloro-phenyl)-pent-4-ynyloxy]-2-methyl-phenoxy}-2-methyl-propionic acid], the melting point is 119 to 120 °C (dec.).
On the same count and under the same terms, the figure for `Cc1cc(OCCC#Cc2ccc(Cl)cc2)ccc1OC(C)(C)C(=O)O` [Example 18, 2-{4-[4-(4-Chloro-phenyl)-but-3-ynyloxy]-2-methyl-phenoxy}-2-methyl-propionic acid] is 68 to 69 °C (dec.); for `Cc1cc(OCCCC#Cc2ccc(OC(F)(F)F)cc2)ccc1OCC(=O)O` [Example 20, {2-Methyl-4-[5-(4-trifluoromethoxy-phenyl)-pent-4-ynyloxy]-phenoxy}-acetic acid] it is 124.6 to 126.7 °C.
Still for that read-out and setting: in the case of `Cc1cc(OCCCC#Cc2ccc(Cl)c(F)c2)ccc1OC(C)(C)C(=O)O` [Example 27, 2-{4-[5-(4-Chloro-3-fluoro-phenyl)-pent-4-ynyloxy]-2-methyl-phenoxy}-2-methyl-propionic acid] it was 106 to 107 °C (dec.); in that of `Cc1cc(OCCCC#Cc2cnc(C(F)(F)F)nc2)ccc1OC(C)(C)C(=O)O` [Example 28, 2-Methyl-2-{2-methyl-4-[5-(2-trifluoromethyl-pyrimidin-5-yl)-pent-4-ynyloxy]-phenoxy}-propionic acid], 95 to 97 °C (dec.).
As for `CC(C)(Oc1ccc(CNC(=O)CCC#Cc2ccc(OC(F)(F)F)cc2)cc1)C(=O)O` [Example 29, 2-Methyl-2-(4-{[5-(4-trifluoromethoxy-phenyl)-pent-4-ynoylamino]-methyl}-phenoxy)-propionic acid], the melting point is 127 to 128 °C (dec.).
On the same count and under the same terms, the figure for `CC(C)(Oc1ccc(OCCCC#Cc2ccc(OC(F)(F)F)cc2)c(F)c1)C(=O)O` [Example 32, 2-{3-Fluoro-4-[5-(4-trifluoromethoxy-phenyl)-pent-4-ynyloxy]-phenoxy}-2-methyl-propionic acid] is 65.5 to 68.5 °C; for `Cc1c(OC(C)(C)C(=O)O)ccc(OCCCC#Cc2ccc(OC(F)(F)F)cc2)c1F` [Example 33, 2-{3-Fluoro-2-methyl-4-[5-(4-trifluoromethoxy-phenyl)-pent-4-ynyloxy]-phenoxy}-2-methyl-propionic acid] it is 116 to 118 °C.

One may read the IC50 as the concentration at which inhibition is half-maximal. Low readings indicate greater potency, high ones weaker potency. By melting point is commonly meant the temperature of the solid-liquid transition.
